Assay results reported in patent US8101658B2, “Nitric oxide donating prostamides” (Nicox S.A., priority 2008, dated 2012).
Where “and” joins values, the source holds several entries; their conditions need not be identical. Equal entries are not always repeated. Marks after values point to notes of the source that are not given here.

Columns and labels:
[1] = test system: ocular normotensive dogs (Beagle); experiment: Intraocular pressure by pneumatonometry in ocular normotensive dogs; assay type: in vivo; details: normotensive dog; for ΔΔEmax (difference in IOP compound-treated eye over vehicle-treated eye at time of maximum reduction): topical 50 μl drop to one eye in the evening, contralateral eye vehicle, dose equimolar to 0.03% Bimatoprost, n=8; for % Change from vehicle control (IOP): topical 50 μl drop to one eye, contralateral eye vehicle (set at 100%)
Experimental: (§1) Intraocular pressure was measured by pneumatonometry in ocular normotensive dogs (Beagle) and ocular hypertensive non human primates (for example, although dosing different here, see hypertensive primates described by Toris, C. B.; Zhan, G.-L.; Feilmeier, M. R.; Camras, C. B.; McLaughlin, M. A. J. Ocular Pharm. Ther. 2006, 22, 86-92). As described, only one eye is hypertensive in this primate model. Studies were performed in conscious animals (n=8/study) trained to accept pneumatonometry. The test compound and controls were formulated in a 10 mM citrate buffer vehicle at pH 5.5 with 0.5% Tween 80 and 0.02% benzalkonium chloride, and were administered in the evening. All test compounds were formulated at a dose equimolar to 0.03% Bimatoprost. Intraocular pressure was measured at −12 (baseline), 12 and 18 hours post treatment. Tetracaine hydrochloride (0.5%) was used to anesthetize the cornea when the intraocular pressure measurements were taken.
(§2) In the primate model, the hypertensive eye received 2×25 μl volume drops of the test compound. After a washout period of one week, the ocular hypertensive eye was then dosed with Bimatoprost (2×25 μl volume drops) as a control. The contralateral, normotensive eye was not treated in the study. In the normotensive dog model, the test compound was administered topically to one eye in a 50 μl volume drop. The contralateral eye received a 50 μl volume drop of blank vehicle or Bimatoprost (in the case of the head-to-head study only) to serve as a control. Students paired t test was used to compare treatment with test compound vs vehicle or Bimatoprost control for significant differences.
(§3) Tables 2 and 3 describe the intraocular pressure (IOP) changes that were seen following topical application of novel NO-prostamides in ocular hypertensive non-human primates and normotensive dogs. ΔEmax represents the maximal efficacy as compared to baseline (BL) values. ΔΔEmax reflects the difference in IOP from compound-treated eye over that seen for vehicle-treated eye at the timepoint wherein maximum IOP reduction for compound was seen. The percent change from vehicle control was the percentage change in IOP reduction conferred by compound over that for vehicle (set at 100%). Tmax represents the time point at which maximum IOP reduction of compound was observed.

[2] = test system: ocular hypertensive non human primates; experiment: Intraocular pressure by pneumatonometry in ocular hypertensive primates; assay type: in vivo; details: ocular hypertensive primate, hypertensive eye, topical 2×25 μl drops in the evening, dose equimolar to 0.03% Bimatoprost; for ΔEmax (maximal IOP efficacy as compared to baseline): IOP at 12 and 18 h, n=8
Experimental: as §1, §2, §3

Row | SMILES | ΔΔEmax (difference in IOP compound-treated eye over vehicle-treated eye at time of maximum reduction) [1] | % Change from vehicle control (IOP) [1] | % change from Baseline (IOP) [2] | ΔEmax (maximal IOP efficacy as compared to baseline) [2]
1 | CCNC(=O)CCC/C=C\C[C@@H]1[C@@H](/C=C/[C@@H](O)CCc2ccccc2)[C@H](OC(=O)OCCCCO[N+](=O)[O-])C[C@@H]1O [Example G-1, (2R,3R)-3-[(2Z)-7-(Ethylamino)-7-oxohept-2-en-1-yl]-4-hydroxy-2-[(1E,3S)-3-hydroxy-5-phenylpent-1-en-1-yl]cyclopentyl 4-(Nitrooxy)butyl Carbonate] | −3.8** mm H/g | -20% | – | –
2 | CCNC(=O)CCC/C=C\C[C@@H]1[C@@H](/C=C/[C@H](CCc2ccccc2)OC(=O)CCCCCO[N+](=O)[O-])[C@H](O)C[C@@H]1O [Example B-1, (1S,2E)-3-{(1R,2R,3S,5R)-2-[(2Z)-7-(Ethylamino)-7-oxohept-2-en-1-yl]-3,5-dihydroxycyclopentyl}-1-(2-phenylethyl)prop-2-en-1-yl 6-(Nitrooxy)hexanoate] | – | −28** % and −34** % | −24** % | −7.7** mm Hg
3 | CCNC(=O)CCC/C=C\C[C@@H]1[C@@H](/C=C/[C@@H](O)CCc2ccccc2)[C@H](O)C[C@@H]1O [Bimatoprost, reference compound] | −4.0** mm H/g | −16** % | −13% | −4.8* mm Hg
4 | CCNC(=O)CCC/C=C\C[C@@H]1[C@@H](/C=C/[C@H](CCc2ccccc2)OC(=O)CCCO[N+](=O)[O-])[C@H](O)C[C@@H]1O [Example A-1, (1S,2E)-3-{(1R,2R,3S,5R)-2-[(2Z)-7-(Ethylamino)-7-oxohept-2-en-1-yl]-3,5-dihydroxycyclopentyl}-1-(2-phenylethyl)prop-2-en-1-yl 4-(Nitrooxy)butanoate] | −3.6** mm H/g | −20** % | – | –
5 | CCNC(=O)CCC/C=C\C[C@@H]1[C@@H](/C=C/[C@@H](O)CCc2ccccc2)[C@H](OC(=O)CCCCCO[N+](=O)[O-])C[C@@H]1O [Example F-1, (1R,2R,3R,4S)-3-[(2Z)-7-(Ethylamino)-7-oxohept-2-en-1-yl]-4-hydroxy-2-[(1E,3S)-3-hydroxy-5-phenylpent-1-en-1-yl]cyclopentyl 6-(Nitrooxy)hexanoate] | −4.9** mm H/g | −25** % | – | –
6 | CCNC(=O)CCC/C=C\C[C@@H]1[C@@H](/C=C/[C@H](CCc2ccccc2)OC(=O)CCOCCOCCOCCO[N+](=O)[O-])[C@H](O)C[C@@H]1O [Example C-1, (1S,2E)-3-{(1R,2R,3S,5R)-2-[(2Z)-7-(Ethylamino)-7-oxohept-2-en-1-yl]-3,5-dihydroxycyclopentyl}-1-(2-phenylethyl)prop-2-en-1-yl 3-(2-{2-[2-(Nitrooxy)ethoxy]ethoxy}ethoxy)propanoate] | −3.6** mm H/g | -18% | – | –
